Where only a bound is given, the exact number is not on record here.

In one test the test system is HCV 1b genotype. The experiment in a line: HCV Replicon assay (HCV-neo replicon cells, wild-type). The test is classed as cell-based. Conditions: HCV 1b genotype replicon; class symbols. As to the method:
An HCV Replicon assay was utilized in the present disclosure, and was prepared, conducted and validated as described in commonly owned PCT/US2006/022197 and in O'Boyle et. al. Antimicrob Agents Chemother. 2005 April; 49 (4):1346-53. Assay methods incorporating luciferase reporters have also been used as described (Apath.com).
HCV-neo replicon cells and replicon cells containing mutations in the NS5A region were used to test the currently described family of compounds. The compounds were determined to have more than 10-fold less inhibitory activity on cells containing mutations than wild-type cells. Thus, the compounds of the present disclosure can be effective in inhibiting the function of the HCV NS5A protein and are understood to be as effective in combinations as previously described in application PCT/US2006/022197 and commonly owned WO/O4014852. Further, the compounds of the present disclosure can be effective against the HCV 1b genotype. It should also be understood that the compounds of the present disclosure can inhibit multiple genotypes of HCV. […] In one embodiment, compounds of the present disclosure are inhibitory versus 1a, 1b, 2a, 2b, 3a, 4a, and 5a genotypes.
For the compound `CCC(=O)N1CCC[C@H]1c1nc2cc(C#Cc3ccc4[nH]c([C@@H]5CCCN5C(=O)CC)nc4c3)ccc2[nH]1` [Example M2], the EC50 lay within 4.57 to 99 nM.

On to `O=C(Cc1ccccn1)N1CCC[C@H]1c1nc2cc(C#Cc3ccc4[nH]c([C@@H]5CCCN5C(=O)Cc5ccccn5)nc4c3)ccc2[nH]1` [Example M7, 5,5′-(1,2-ethynediyl)bis(2-((2S)-1-(2-pyridinylacetyl)-2-pyrrolidinyl)-1H-benzimidazole)], for which the concentration for a half-maximal effect (EC50) was less than 4.57 nM.

Staying with this test, now noted: Hepatitis C virus, HCV 1b genotype replicon; class symbols.
Take `CN(C)[C@@H](C(=O)N1CCC[C@H]1c1nc2cc(-c3cnc(-c4ccc5nc([C@@H]6CCCN6C(=O)[C@@H](c6ccccc6)N(C)C)[nH]c5c4)o3)ccc2[nH]1)c1ccccc1` [Example J20, (1R)-2-((2S)-2-(5-(2-(2-((2S)-1-((2R)-2-(dimethyl-amino)-2-phenylacetyl)-2-pyrrolidinyl)-1H-benzimidazol-6-yl)-1,3-oxazol-5-yl)-1H-benzimidazol-2-yl)-1-pyrrolidinyl)-N,N-dimethyl-2-oxo-1-phenyl-ethanamine]: the EC50 is less than 4.57 nM.

As to `CC(=O)N[C@@H](C(=O)N1CCC[C@H]1c1nc2cc(-c3cnc(-c4ccc5nc([C@@H]6CCCN6C(=O)[C@H](NC(C)=O)c6ccccc6)[nH]c5c4)o3)ccc2[nH]1)c1ccccc1` [Example J21, N-((1R)-2-((2S)-2-(5-(2-(2-((2S)-1-((2R)-2-acetamido-2-phenylacetyl)-2-pyrrolidinyl)-1H-benzimidazol-6-yl)-1,3-oxazol-5-yl)-1H-benzimidazol-2-yl)-1-pyrrolidinyl)-2-oxo-1-phenylethyl) acetamide], the EC50 is less than 4.57 nM.

For `COc1cccc2c(C(=O)N3CCC[C@H]3c3nc4cc(-c5cnc(-c6ccc7nc([C@@H]8CCCN8C(=O)c8nc(Cl)cc9c(OC)cccc89)[nH]c7c6)o5)ccc4[nH]3)nc(Cl)cc12` [Example J22, 3-chloro-1-(((2S)-2-(5-(2-(2-((2S)-1-((3-chloro-5-methoxy-1-isoquinolinyl)carbonyl)-2-pyrrolidinyl)-1H-benzimidazol-6-yl)-1,3-oxazol-5-yl)-1H-benzimidazol-2-yl)-1-pyrrolidinyl)carbonyl)-5-methoxy-isoquinoline], the EC50 lay in the range of 1000 to 10000 nM.

Take `CN(C)[C@@H](C(=O)N1CCC[C@H]1c1nc2cc(-c3cnc(-c4ccc5nc([C@@H]6C[C@@H]7C[C@@H]7N6C(=O)[C@@H](c6ccccc6)N(C)C)[nH]c5c4)o3)ccc2[nH]1)c1ccccc1` [Example J23, (1R)-2-((2S)-2-(5-(2-(2-((1S,3S,5S)-2-((2R)-2-(dimethyl-amino)-2-phenylacetyl)-2-azabicyclo[3. 1.0]hex-3-yl)-1H-benzimidazol-5-yl)-1,3-oxazol-5-yl)-1H-benzimidazol-2-yl)-1-pyrrolidinyl)-N,N-dimethyl-2-oxo-1-phenyl-ethanamine]: the concentration for a half-maximal effect (EC50) is less than 4.57 nM.

Take `CC(=O)N[C@@H](C(=O)N1CCC[C@H]1c1nc2cc(-c3cnc(-c4ccc5nc([C@@H]6C[C@@H]7C[C@@H]7N6C(=O)[C@H](NC(C)=O)c6ccccc6)[nH]c5c4)o3)ccc2[nH]1)c1ccccc1` [Example J24, N-((1R)-2-((2S)-2-(5-(2-(2-((1S,3S,5S)-2-((2R)-2-acetamido-2-phenylacetyl)-2-azabicyclo[3. 1.0]hex-3-yl)-1H-benzimidazol-5-yl)-1,3-oxazol-5-yl)-1H-benzimidazol-2-yl)-1-pyrrolidinyl)-2-oxo-1-phenylethyl) acetamide]: the half-maximal effective concentration (EC50) was less than 4.57 nM.

Consider `CC(=O)N1CCC[C@H]1c1nc2c(-c3ncc(-c4ccc5[nH]c([C@@H]6CCCN6C(=O)[C@@H](c6ccccc6)N(C)C)nc5c4)o3)cccc2[nH]1` [Example J27, (1R)-2-((2S)-2-(5-(2-(2-((2S)-1-acetyl-2-pyrrolidinyl)-1H-benzimidazol-4-yl)-1,3-oxazol-5-yl)-1H-benzimidazol-2-yl)-1-pyrrolidinyl)-N,N-dimethyl-2-oxo-1-phenyl-ethanamine], for which the EC50 is less than 4.57 nM.

As to `CN(C)CC(=O)N1CCC[C@H]1c1nc2c(-c3ncc(-c4ccc5[nH]c([C@@H]6CCCN6C(=O)[C@@H](c6ccccc6)N(C)C)nc5c4)o3)cccc2[nH]1` [Example J28, (1R)-2-((2S)-2-(5-(2-(2-((2S)-1-((dimethyl-amino)acetyl)-2-pyrrolidinyl)-1H-benzimidazol-4-yl)-1,3-oxazol-5-yl)-1H-benzimidazol-2-yl)-1-pyrrolidinyl)-N,N-dimethyl-2-oxo-1-phenyl-ethanamine], the EC50 was less than 4.57 nM.

In the case of `COC(=O)N[C@@H](C(=O)N1CCC[C@H]1c1nc2cc(-c3cnc(-c4cccc5[nH]c([C@@H]6CCCN6C(=O)[C@@H](c6ccccc6)N6CCN(C)CC6)nc45)o3)ccc2[nH]1)c1ccccc1` [Example J29, methyl ((1R)-2-(((2S)-2-(5-(2-(2-((2S)-1-((2R)-2-(4-methyl-1-piperazinyl)-2-phenylacetyl)-2-pyrrolidinyl)-1H-benzimidazol-4-yl)-1,3-oxazol-5-yl)-1H-benzimidazol-2-yl)-1-pyrrolidinyl)-2-oxo-1-phenylethyl) carbamate], the EC50 was less than 4.57 nM.

On to `CN(C)[C@@H](C(=O)N1CCC[C@H]1c1nc2ccc(C(=O)c3ccc4nc([C@@H]5CCCN5C(=O)[C@@H](c5ccccc5)N(C)C)[nH]c4c3)cc2[nH]1)c1ccccc1` [Example J32, bis(2-((2S)-1-((2R)-2-(dimethylamino)-2-phenylacetyl)-2-pyrrolidinyl)-1H-benzimidazol-5-yl)methanone], for which the 50% effective concentration (EC50) lay in the range of 4.57 to 99 nM.

With `COC(=O)N[C@@H](C(=O)N1CCC[C@H]1c1nc2ccc(C(=O)c3ccc4nc([C@@H]5CCCN5C(=O)[C@H](NC(=O)OC)c5ccccc5)[nH]c4c3)cc2[nH]1)c1ccccc1` [Example J33], the 50% effective concentration (EC50) is less than 4.57 nM.

Consider `C[C@@H](C(=O)N1CCC[C@H]1c1nc2cc(C#Cc3ccc4[nH]c([C@@H]5CCCN5C(=O)[C@H](C)c5ccccc5)nc4c3)ccc2[nH]1)c1ccccc1` [Example M1, 5,5′-(1,2-ethynediyl)bis(2-((2S)-1-((2R)-2-phenylpropanoyl)-2-pyrrolidinyl)-1H-benzimidazole)], for which the 50% effective concentration (EC50) is less than 4.57 nM.

As for `CC(C)C(=O)N1CCC[C@H]1c1nc2cc(C#Cc3ccc4[nH]c([C@@H]5CCCN5C(=O)C(C)C)nc4c3)ccc2[nH]1` [Example M3, 5,5′-(1,2-ethynediyl)bis(2-((2S)-1-isobutyryl-2-pyrrolidinyl)-1H-benzimidazole)], the EC50 was 4.57 to 99 nM.

Take `O=C(C1CC1)N1CCC[C@H]1c1nc2cc(C#Cc3ccc4nc([C@@H]5CCCN5C(=O)C5CC5)[nH]c4c3)ccc2[nH]1` [Example M4, 2-((2S)-1-(cyclopropylcarbonyl)-2-pyrrolidinyl)-5-((2-((2S)-1-(cyclopropylcarbonyl)-2-pyrrolidinyl)-1H-benzimidazol-6-yl)ethynyl)-1H-benzimidazole]: the EC50 lay within 4.57 to 99 nM.

For `O=C(c1ccccc1)N1CCC[C@H]1c1nc2cc(C#Cc3ccc4nc([C@@H]5CCCN5C(=O)c5ccccc5)[nH]c4c3)ccc2[nH]1` [Example M6, 2-((2S)-1-benzoyl-2-pyrrolidinyl)-5-((2-((2S)-1-benzoyl-2-pyrrolidinyl)-1H-benzimidazol-6-yl)ethynyl)-1H-benzimidazole], the EC50 is 4.57 to 99 nM.

As to `O=C(CC1CC1)N1CCC[C@H]1c1nc2cc(C#Cc3ccc4nc([C@@H]5CCCN5C(=O)CC5CC5)[nH]c4c3)ccc2[nH]1` [Example M8, 2-((2S)-1-(cyclopropylacetyl)-2-pyrrolidinyl)-5-((2-((2S)-1-(cyclopropylacetyl)-2-pyrrolidinyl)-1H-benzimidazol-6-yl)ethynyl)-1H-benzimidazole], the concentration giving a half-maximal response (EC50) was 4.57 to 99 nM.

`O=C(C1CCC1)N1CCC[C@H]1c1nc2cc(C#Cc3ccc4nc([C@@H]5CCCN5C(=O)C5CCC5)[nH]c4c3)ccc2[nH]1` [Example M9, 2-((2S)-1-(cyclobutylcarbonyl)-2-pyrrolidinyl)-5-((2-((2S)-1-(cyclobutylcarbonyl)-2-pyrrolidinyl)-1H-benzimidazol-6-yl)ethynyl)-1H-benzimidazole]: the EC50 lay within 4.57 to 99 nM.

The same test, now with this note: Hepatitis C virus, HCV 1b genotype replicon; numeric values.
Consider `C[C@H](NC(=O)[C@@H](c1ccccc1)N(C)C)c1nc2c(-c3ncc(-c4ccc5[nH]c([C@@H]6CCCN6C(=O)[C@@H](c6ccccc6)N(C)C)nc5c4)o3)cccc2[nH]1` [Example J26, (2R)-2-(dimethyl-amino)-N-((1S)-1-(4-(5-(2-((2S)-1-((2R)-2-(dimethyl-amino)-2-phenylacetyl)-2-pyrrolidinyl)-1H-benzimidazol-5-yl)-1,3-oxazol-2-yl)-1H-benzimidazol-2-yl)ethyl)-2-phenyl-acetamide], for which the 50% effective concentration (EC50) worked out at 0.021 nM.

For the compound `COC(=O)N[C@@H](C(=O)N1CCC[C@H]1c1nc2c(-c3ncc(-c4ccc5[nH]c([C@@H]6CCCN6C(=O)[C@@H](c6ccccc6)N6CCN(C)CC6)nc5c4)o3)cccc2[nH]1)c1ccccc1` [Example J30, methyl ((1R)-2-((2S)-2-(4-(5-(2-((2S)-1-((2R)-2-(4-methyl-1-piperazinyl)-2-phenylacetyl)-2-pyrrolidinyl)-1H-benzimidazol-5-yl)-1,3-oxazol-2-yl)-1H-benzimidazol-2-yl)-1-pyrrolidinyl)-2-oxo-1-phenylethyl) carbamate], the concentration for a half-maximal effect (EC50) is 0.058 nM.

On to `O=C([C@H]1CCCO1)N1CCC[C@H]1c1nc2cc(C#Cc3ccc4[nH]c([C@@H]5CCCN5C(=O)[C@H]5CCCO5)nc4c3)ccc2[nH]1` [Example M5, 5,5′-(1,2-ethynediyl)bis(2-((2S)-1-((2R)-tetrahydro-2-furanylcarbonyl)-2-pyrrolidinyl)-1H-benzimidazole)], for which the EC50 was found to be 10 nM.
